This is an account of results in ChEMBL document CHEMBL1134487, “Design, synthesis, and biological evaluation of analogues of the antitumor agent, 2-(4-[(7-chloro-2-quinoxalinyl)oxy]phenoxy)propionic acid (XK469)” (2001).

Molecules are shown by their SMILES.

Assay [1] deals with Mus musculus. Kind of assay: In vivo activity tested against C3H mice bearing colon adenocarcinoma -38(colon-38) tumor measured as body weight loss at 1433 mg/kg (po). In kind it is functional.
Assay [2] concerns Mus musculus. Kind of assay: In vivo activity tested against C3H mice bearing colon adenocarcinoma -38(colon-38) tumor measured as % treated/control calculated at 1433 mg/kg (po). The format is functional.
The subject of assay [3] is Mus musculus. Kind of assay: In vivo activity tested against C3H mice bearing colon adenocarcinoma -38(colon-38) tumor measured as activity rating at 1433 mg/kg (po). The format is functional.
Assay [4] concerns Mus musculus. Kind of assay: In vivo activity tested against C3H mice bearing colon adenocarcinoma -38(colon-38) tumor measured as log Kill value was based on tumors that grew at 1433 mg/kg (po). The format is functional, organism-based. Details: dose 1433 mg/kg.
Assay [5] concerns Mus musculus. Description: In vivo activity tested against C3H mice bearing panc-03 murine tumor at a dose of 330mg/kg, measured as % treated/control. In kind it is functional.
In assay [6] the test system is Mus musculus. Kind of assay: In vivo activity tested against C3H mice bearing Mam 17/Adr murine tumor at a dose of 330 mg/kg, measured as activity rating. In kind it is functional.
Assay [7] deals with Mus musculus. Description: In vivo activity tested against C3H mice bearing panc-03 murine tumor at a dose of 330mg/kg, measured as activity rating. The format is functional.
The test system of assay [8] is Mus musculus. Description: In vivo activity tested against C3H mice bearing colon adenocarcinoma -38(colon-38) tumor measured as body weight loss at 769 mg/kg (po). The format is functional.
For assay [9], the system named is Mus musculus. Description: In vivo activity tested against C3H mice bearing colon adenocarcinoma -38(colon-38) tumor measured as % treated/control calculated at 769 mg/kg (po). In kind it is functional.
For assay [10], the system named is Mus musculus. Description: In vivo activity tested against C3H mice bearing colon adenocarcinoma -38(colon-38) tumor measured as activity rating at 769 mg/kg (po). In kind it is functional.
In assay [11] the test system is Mus musculus. Description: In vivo activity tested against C3H mice bearing colon adenocarcinoma -38(colon-38) tumor measured as log Kill value was based on tumors that grew at 769 mg/kg (po). In kind it is functional, organism-based. More on the design: dose 769 mg/kg.
Assay [12] concerns Mus musculus. Description: In vivo activity tested against C3H mice bearing panc-03 murine tumor measured as body weight loss at 1320 mg/kg (po). In kind it is functional.
Assay [13] deals with Mus musculus. Description: In vivo activity tested against C3H mice bearing panc-03 murine tumor measured as log Kill value was based on tumors that grew at 1320 mg/kg (po). Details: dose 1320 mg/kg. The format is functional, organism-based.
In assay [14] the test system is Mus musculus. Description: In vivo activity tested against C3H mice bearing panc-03 murine tumor measured as % treated/control calculated at 1320 mg/kg (po). The format is functional.
In assay [15] the test system is Mus musculus. Description: In vivo activity tested against C3H mice bearing colon adenocarcinoma -38(colon-38) tumor measured as body weight loss at 2686 mg/kg (po). The format is functional.
The subject of assay [16] is Mus musculus. Description: In vivo activity tested against C3H mice bearing colon adenocarcinoma -38(colon-38) tumor measured as % treated/control calculated at 2686 mg/kg (po). The format is functional.
The test system of assay [17] is Mus musculus. Kind of assay: In vivo activity tested against C3H mice bearing colon adenocarcinoma -38(colon-38) tumor measured as activity rating at 2686 mg/kg (po). In kind it is functional.
The subject of assay [18] is Mus musculus. Description: In vivo activity tested against C3H mice bearing colon adenocarcinoma -38(colon-38) tumor measured as log Kill value was based on tumors that grew at 2686 mg/kg (po). Details: dose 2686 mg/kg. The format is functional, organism-based.
Assay [19] deals with Mus musculus. Kind of assay: In vivo activity tested against C3H mice bearing panc-03 murine tumor measured as % treated/control calculated at 480 mg/kg (po). In kind it is functional.
Assay [20] deals with Mus musculus. Description: In vivo activity tested against C3H mice bearing panc-03 murine tumor measured as body weight loss at 2300 mg/kg (po). In kind it is functional.
In assay [21] the test system is Mus musculus. Description: In vivo activity tested against C3H mice bearing panc-03 murine tumor measured as body weight loss at 480 mg/kg (po). The format is functional.
Assay [22] has as its system Mus musculus. Kind of assay: In vivo activity tested against C3H mice bearing panc-03 murine tumor measured as log Kill value was based on tumors that grew at 2300 mg/kg (po). In kind it is functional, organism-based. Details: dose 2300 mg/kg.
Assay [23] deals with Mus musculus. Kind of assay: In vivo activity tested against C3H mice bearing panc-03 murine tumor measured as log Kill value was based on tumors that grew at 480 mg/kg (po). The format is functional, organism-based. Details: dose 480 mg/kg.
The test system of assay [24] is Mus musculus. Kind of assay: In vivo activity tested against C3H mice bearing panc-03 murine tumor measured as % treated/control calculated at 2300 mg/kg (po). In kind it is functional.
For assay [25], the system named is Mus musculus. Description: In vivo activity tested against C3H mice bearing panc-03 murine tumor measured as cures at 2300 mg/kg (po); 1/5 cures. In kind it is functional.
Assay [26] deals with Mus musculus. Description: In vivo activity tested against C3H mice bearing panc-03 murine tumor measured as % treated/control calculated at 287 mg/kg (po). In kind it is functional.
Assay [27] relates to Mus musculus. Kind of assay: In vivo activity tested against C3H mice bearing panc-03 murine tumor measured as % treated/control calculated at 351 mg/kg (po). In kind it is functional.
Assay [28] concerns Mus musculus. Kind of assay: In vivo activity tested against C3H mice bearing panc-03 murine tumor measured as body weight loss at 287 mg/kg (po). In kind it is functional.
For assay [29], the system named is Mus musculus. Kind of assay: In vivo activity tested against C3H mice bearing panc-03 murine tumor measured as body weight loss at 351 mg/kg (po). In kind it is functional.
The subject of assay [30] is Mus musculus. Description: In vivo activity tested against C3H mice bearing panc-03 murine tumor measured as log Kill value was based on tumors that grew at 287 mg/kg (po). More on the design: dose 287 mg/kg. In kind it is functional, organism-based.
Assay [31] relates to Mus musculus. Kind of assay: In vivo activity tested against C3H mice bearing panc-03 murine tumor measured as log Kill value was based on tumors that grew at 351 mg/kg (po). The format is functional, organism-based. Details: dose 351 mg/kg.
Assay [32] has as its system Mus musculus. Kind of assay: In vivo activity tested against C3H mice bearing colon adenocarcinoma -38(colon-38) tumor measured as body weight loss at 495 mg/kg (po). In kind it is functional.
Assay [33] relates to Mus musculus. Kind of assay: In vivo activity tested against C3H mice bearing colon adenocarcinoma -38(colon-38) tumor measured as % treated/control calculated at 495 mg/kg (po). The format is functional.
The test system of assay [34] is Mus musculus. Description: In vivo activity tested against C3H mice bearing colon adenocarcinoma -38(colon-38) tumor measured as activity rating at 495 mg/kg (po). In kind it is functional.
Assay [35] concerns Mus musculus. Description: In vivo activity tested against C3H mice bearing colon adenocarcinoma -38(colon-38) tumor, measured as cures at 495 mg/kg (po); 3/5 cures. The format is functional.
Assay [36] has as its system Mus musculus. Description: In vivo activity tested against C3H mice bearing colon adenocarcinoma -38(colon-38) tumor measured as log Kill value was based on tumors that grew at 495 mg/kg (po). In kind it is functional, organism-based. More on the design: dose 495 mg/kg.

For the compound `COC(=O)C(C)Oc1ccc(Oc2cnc3ccc(F)cc3n2)cc1` (stereo unspecified), the Body weight loss in assay [1] is recorded as 1%. Further, the T/C in [2] is listed as 34%. For the same compound, in assay [3], the Activity rating turned out to be 1.2. Moreover, the Log kill in [4] came out at 0.8.
`CC(Sc1ccc(Oc2cnc3ccc(Cl)cc3n2)cc1)C(=O)O` (stereo unspecified): in [5], the T/C is on record as 100%. Besides, the Activity rating in assay [6] and in assay [7] was over 2.8 throughout.
Consider `CC(Oc1ccc(Oc2cnc3cc(F)ccc3n2)cc1)C(=O)O` (stereo unspecified), for which the Body weight loss in assay [8] came to 1%. In addition, the T/C in [9] is reported as 34%. In assay [10], this compound came in with an Activity rating of 1.2. In addition, in assay [11], the Log kill is 0.9.
As for `CC(Oc1ccc(Oc2cnc3ccc(Cl)cc3n2)cc1)C(N)=O` (stereo unspecified), the Body weight loss in [12] was -3.6%. In addition, the Log kill in [13] was found to be 1.9. Also, in assay [14], the T/C is reported as 7.3.
Turning to `CCOC(=O)C(C)Oc1ccc(Oc2cnc3cc(Cl)ccc3n2)cc1` (stereo unspecified) [QUIZALOFOP ETHYL ESTER], in [15], the Body weight loss is given as 0%. The T/C in assay [16] is 61%. The Activity rating in [17] was under 0.7. Moreover, the Log kill in assay [18] came to 0.42.
Turning to `CNC(=O)C(C)Oc1ccc(Oc2cnc3ccc(Cl)cc3n2)cc1` (stereo unspecified), the T/C in assay [19] is listed as 39%; in [24], 4%. Further, the Body weight loss is on record as -14.5% in [20] and -9.3% in [21]. Further, the values for the Log kill in assay [22] and in assay [23] were 4.2 and 1.2, respectively. In addition, the Cures in assay [25] stood at 1.
`CC(Oc1ccc(Oc2cnc3cccc(Cl)c3n2)cc1)C(=O)O` (stereo unspecified): the figures for the T/C in assay [26] and in assay [27] were 69% and 74%, respectively. Moreover, the values for the Body weight loss in [28] and in assay [29] were -3.9% and -4%, respectively. The Log kill in assay [30] is 0.1; in assay [31], 0.
Regarding `COC(=O)C(C)Oc1ccc(Oc2cnc3ccc(Cl)cc3n2)cc1` (stereo unspecified), the Body weight loss in assay [32] was 0%. For the same compound, in assay [33], the T/C is 0%. The Activity rating in [34] is recorded as over 2.8. For the same compound, in [35], the Cures was 3. Besides, the Log kill in assay [36] is 3.5.
